Data as given in patent EP3683219A1, “COMPOUND INHIBITING BUTYRYLCHOLINESTERASE” (Julius-Maximilians-Universität Würzburg, priority 2019, dated 2020).

Experiments:
hBChE [1] = molecular target: T1, hBChE (Homo sapiens, UniProt P06276); test: biochemical; assay type: biochemical; details: for plC50 ± SEM (hBChE) / IC50: enzyme activity measured after 20 min incubation; for IC50: read-out: IC50 hBChE; for Selectivity index (IC50 hAChE/IC50 hBChE): hAChE over hBChE
Method: (§1) For evaluation of enzyme inhibition, Ellman's colorimetric assay was conducted as described in Ellman, G. L., Arch. Biochem. Biophys 1958, 74, 443-450 and Ellman, G. L. et al., Biochem. Pharmacol. 1961, 7, 88-95. Therefor, 5,5'-dithiobis-(2-nitrobenzoic acid) (DTNB) solution, respective Cholinesterase (ChE) and inhibitor were incubated together and enzyme activity was measured after 20 min. The long incubation time was needed to allow the carbamate transfer between ChE and inhibitor.
(§2) The carbamate residue was altered systematically by changing residues in the terminal position of carbamate moiety and different flexible alkylene linkers were introduced. […] Nevertheless, it must be noted that IC50 values only serve as a first indicator of inhibitor affinity and selectivity. Due to the chemical reaction of carbamate transfer the enzyme inhibition is strongly time dependent. […]

[2] = test system: Aβ25-35-induced spontaneous alternation deficits; test: Spontaneous alternation test in the Y-maze, Aβ25-35-injected mice; assay type: in vivo, male Swiss mice; details: for prevention of the effects of Aβ injection, both behavioral parameters: dose of 1 or 3 mg/kg ip, Y-maze and passive avoidance; for dose active on Aβ25-35-induced spontaneous alternation deficits: ip o.d. day 1 to 7
Method: 2013, 38, pages 1706-1723.
AD-like cognitive dysfunctions were induced in male Swiss mice, 6 weeks old, weighing 31-36 g by intracerebroventricular (icv) injection of the oligomerized Aβ25-35 peptide into the mouse brain on day 1.
Compounds were weighed, dissolved in pure DMSO at a concentration of 1 mg/ml and diluted into final test concentrations with saline. The final percentage of DMSO in saline was 60% for all compounds. Vehicle solution used for control groups was 60% DMSO in saline. Compounds were injected intraperitoneally (ip) from day 1 to 7 and behavioral studies were conducted between day 8 and 10. Spatial working memory was evaluated using a spontaneous alternation test in a Y-maze on day 8. The Y-maze is made of grey polyvinylchloride. Each arm is 40 cm long, 13 cm high, 3 cm wide at the bottom, 10 cm wide at the top, and converging at an equal angle. Each mouse is placed at the end of one arm and allowed to explore the maze freely for 8 min. The sequence of arm entries (including possible returns into the same arm) was checked visually and noted down. If the mouse enters all three arms on consecutive occasion, this is defined as an alternation. Therefore, the total number of arm entries minus two is also the maximum number of alternations. The percentage of alternation was calculated as (actual alternations / maximum alternations) x 100. Parameters for the evaluation of behavior are given as the percentage of alternation (memory index) and a total number of arm entries (exploration index).
Figs. 7a-h show the effect of the compounds on Aβ25-35-induced spontaneous alternation deficits in mice. […] Figs. 7a, c, e, g: spontaneous alternation performance; Figs. 7b, d, f, h: number of arm entries in the Y-maze test performed at day 8.

[3] = test system: Aβ25-35-induced passive avoidance impairments; test: Step-through passive avoidance test, Aβ25-35-injected mice; assay type: in vivo, male Swiss mice; details: 0.3-3 mg/kg ip o.d. day 1 to 7; retention day 10
hAChE = hAChE (Homo sapiens, UniProt P22303); test: Ellman's colorimetric assay, inhibition of hAChE; assay type: biochemical
hAChE, sequence (P22303 32-614): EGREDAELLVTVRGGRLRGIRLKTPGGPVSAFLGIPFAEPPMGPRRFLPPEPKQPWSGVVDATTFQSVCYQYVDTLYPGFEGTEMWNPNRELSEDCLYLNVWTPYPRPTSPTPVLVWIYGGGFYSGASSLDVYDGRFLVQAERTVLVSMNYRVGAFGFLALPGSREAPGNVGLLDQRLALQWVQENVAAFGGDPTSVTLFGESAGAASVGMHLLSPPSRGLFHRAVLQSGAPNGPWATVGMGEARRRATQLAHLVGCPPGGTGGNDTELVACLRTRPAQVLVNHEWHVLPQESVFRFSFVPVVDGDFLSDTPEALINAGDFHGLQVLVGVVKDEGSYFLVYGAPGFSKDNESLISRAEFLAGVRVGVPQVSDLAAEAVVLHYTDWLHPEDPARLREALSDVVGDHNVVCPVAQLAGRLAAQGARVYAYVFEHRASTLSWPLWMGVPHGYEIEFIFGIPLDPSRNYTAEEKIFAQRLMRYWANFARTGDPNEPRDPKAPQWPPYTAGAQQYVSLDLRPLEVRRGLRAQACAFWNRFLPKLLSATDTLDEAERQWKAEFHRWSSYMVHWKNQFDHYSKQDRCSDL
Method: as §1, §2

hBChE [4] = molecular target: T1, hBChE; test: Carbamoylation kinetics on hBChE (time-dependent inhibition, Kc and k3); assay type: biochemical; details: for k3 [min^-1] hBChE: carbamoylation rate constant; for Kd: carbamoylation, pre-equilibrium constant
Excerpt: As carbamate based inhibitors (C-X) show a pseudo irreversible manner of binding, the IC50 values must be seen critically because two chemical reactions determine them: Carbamate (C) transfer onto the enzyme (E) and carbamate hydrolysis. So, the Kc values, k3 and k4 rate constants according to below formula were investigated for some representative compounds (c.f. Fig. 3 and Fig. 4). [formula]
The mechanism of enzyme inhibition can be divided into three steps: In a pre-equilibrium, the carbamate based inhibitor C-X is bound to the enzyme E and a complex (EC-X) is formed reversible and can be characterized with Kc. Then the carbamate C is transferred onto the enzyme E and binds covalently to form E-C with the rate constant k3 while carrier scaffold X is released. Then E-C is hydrolyzed and enzyme activity is recovered and the amine C' is released with the rate constant k4, also called decarbamoylation rate.
For the determination of Kc and k3 a similar experimental setup was used compared to the evaluation of IC50 values, whereas enzyme activity was measured at various time points after addition of inhibitor.
A = A0 ⋅e^(−kobs ⋅t) + A∞ [formula]
Plotting the enzyme activity (in %) against the incubation times, lead to nonlinear time-dependent inhibition curves for the respective inhibitor concentrations whereby kobs can be determined with an exponential fit correspondent to equation (I).
Furthermore, a hyperbolic curve is obtained, plotting the rate constant kobs against the inhibitor concentration [I], which is described by equation (II), with the substrate concentration [S] and the Michaelis-Menten constant KM. kobs = (k3 ⋅[I])/(KC ⋅(1+([S])/(KM)) + [I]) [formula]
This equation (II) can be rearranged to the reciprocal of kobs, to get a linear plot: (1)/(kobs) = (KC ⋅(1+([S])/(KM)))/(k3)⋅(1)/([I]) + (1)/(k3) [formula]
Since the substrate butyrylthiocholine iodide is not added directly to the enzyme and the inhibitor, but after the incubation of enzyme with inhibitor, [S] can be set to zero, leading to Michaelis-Menten like equation IV. (1)/(kobs) = (KC)/(k3)⋅(1)/([I]) + (1)/(k3) [formula]
Relating to the linear equation (IV), KC can be established from the slope and carbamoylation rate constant k3 from the y-intercept.
As a chemical reaction is taking place, Kc must be seen as a 'real' measure for quantification of enzyme inhibitor interactions. Due to the high costs in measurements on hBChE only some representative compounds were chosen to evaluate also in kinetic studies based on the results from IC50 measurements (table 3). Table 3. Kinetic values for carbamoylation on hBChE for selected representative compounds

hBChE [5] = molecular target: T1, hBChE; test: Decarbamoylation from hBChE, dilution experiments (recovery of enzyme activity, k4); assay type: biochemical; details: decarbamoylation rate, after 1 h incubation and 1:1000 dilution
Method: To further investigate the presence and nature of a peripheral binding site, also the hydrolysis of carbamate and the resulting release of the inhibitor from the enzyme was investigated by measuring the time dependent recovery of enzyme activity. To measure the decarbamoylation rate k4, dilution experiments were performed with hBChE following the procedure described in Sawatzky, E. et al., ChemMedChem 2016, 11, 1540-1550 and in Bartolucci, C. et al., Biochem. J. 2012, 444, 269-277. A high concentration of enzyme and inhibitor where incubated for 1 h. The concentration of inhibitor was chosen, such that > 85% of hBChE was inhibited through carbamate transfer. Then the mixture was diluted with buffer 1:1000 to a concentration at which the enzyme is not further carbamoylated. Due to the hydrolysis and release of the carbamate from the catalytic active serine enzyme activity was recovered slowly. This regeneration of the enzyme was monitored at different time points after the dilution. […] A = (1−e^(k4 ⋅t))⋅(1−A0) + A0 [formula] Table 4. Kinetic values for decarbamoylation from hBChE of selected compounds

T1 sequence (P06276 29-602): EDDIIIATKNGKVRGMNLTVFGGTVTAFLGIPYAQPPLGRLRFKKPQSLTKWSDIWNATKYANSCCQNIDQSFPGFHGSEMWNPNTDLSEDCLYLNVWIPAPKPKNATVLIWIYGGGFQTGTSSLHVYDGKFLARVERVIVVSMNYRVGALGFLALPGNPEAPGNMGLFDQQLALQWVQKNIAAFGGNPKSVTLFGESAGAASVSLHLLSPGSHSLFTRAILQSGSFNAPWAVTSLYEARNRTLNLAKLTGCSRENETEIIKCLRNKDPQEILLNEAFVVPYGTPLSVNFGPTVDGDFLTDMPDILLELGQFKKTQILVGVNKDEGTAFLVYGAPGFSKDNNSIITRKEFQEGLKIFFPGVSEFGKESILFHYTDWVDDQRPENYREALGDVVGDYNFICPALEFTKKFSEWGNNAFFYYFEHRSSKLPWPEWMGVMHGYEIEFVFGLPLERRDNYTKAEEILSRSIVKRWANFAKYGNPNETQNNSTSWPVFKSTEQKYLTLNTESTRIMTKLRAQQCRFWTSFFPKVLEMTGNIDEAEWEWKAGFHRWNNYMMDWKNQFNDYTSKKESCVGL

Row | SMILES | BChE inhibition, in words (hBChE [1]) | effect on Aβ25-35-induced spontaneous alternation deficits ([2]; 0.3-3 mg/kg ip o.d. day 1 to 7, Y-maze day 8) | effect on Aβ25-35-induced passive avoidance deficits (step-through latency, retention) [3] | fold lower activity than heptyl carbamate 7 (IC50 hBChE) (hBChE [1]; compared with compound 7) | plC50 ± SEM (hBChE) (hBChE [1]) | IC50 (hBChE [1]) | Selectivity index (IC50 hAChE/IC50 hBChE) (hBChE [1]) | inhibition at 100 µM (hAChE; 100 µM, read-out: inhibition of hAChE) | k3 [min^-1] hBChE (hBChE [4]) | Kd (hBChE [4]) | k4 (hBChE [5]) | prevention of the effects of Aβ injection, both behavioral parameters [2] | dose active on Aβ25-35-induced spontaneous alternation deficits ([2]; Y-maze day 8) | inhibition at 10 µM (hAChE; 10 µM) | Kc values (hBChE), in words (hBChE [4])
1 | CN1c2ccc(O)cc2CN2CCc3ccccc3C21 (stereo not shown) [Compound 13, reference compound] | lacking BChE inhibition | not active | not active |  |  |  |  |  |  |  |  |  |  |  | 
2 | CN1c2ccc(OC(=O)NCCCCCCN3CCOCC3)cc2CN2CCc3ccccc3C21 (stereo not shown) [Compound 19d] |  |  | effective at the 3 doses tested | approximately 10 fold | 7.31 ± 0.02 | 49.3 nM | >1000 | 45% | 0.16 ± 0.02 min⁻¹ | 202 ± 55 nM | 0.042 ± 0.004 h⁻¹ | fully prevented the effects of Aβ injection | 0.3 mg/kg ip |  | 
3 | CN1c2ccc(OC(=O)NCCCCCCN3CCc4ccccc4C3)cc2CN2CCc3ccccc3C21 (stereo not shown) [Compound 19j] |  |  | effective at the 3 doses tested |  | 7.57 ± 0.05 | 26.7 nM | >1000 |  | 0.18 ± 0.02 min⁻¹ | 3.6 ± 2.9 nM | 0.025 ± 0.001 h⁻¹ | fully prevented the effects of Aβ injection | 1 mg/kg ip | 9% | one-digit nanomolar range
